Data taken from patent US20110294729A1, “Novel Insulin Analogues” (Novo Nordisk A/S, priority 2008, published 2011).

Tests used:
[1] = according to WO 90/01038; cited from earlier work
[2] = test system: insulin receptor A-isoform and B-isoform; settings: cited from earlier work
human IR-B = molecular target: T1, human IR-B (Homo sapiens, UniProt P06213); assay: Insulin receptor binding assay (SPA, solubilised receptor), hIR-B
T1 construct: solubilized human IR (holoreceptor) semipurified by wheat germ agglutinin purification; made in house; host or cells: baby hamster kidney (BHK) cells, stably transfected (pZem vector)
Experimental: (§1) Competition binding experiments were performed in 96-well plates (polystyrene Optiplate-96, PerkinElmer) on an Eppendorf epMotion 5075 robot using solubilized human IR (holoreceptor) semipurified by wheat germ agglutinin purification from baby hamster kidney (BHK) cells, which were stably transfected with the pZem vector containing the human IR-A or IR-B insert.

human IR-A = molecular target: T2, human IR-A (Homo sapiens, UniProt P06213); assay: Insulin receptor binding assay (SPA, solubilised receptor), hIR-A; settings: hIR-A affinity relative to human insulin; analogue directly in yeast supernatant; SPA competition with [125I]A14Tyr-labelled insulin
T2 construct: solubilized human IR (holoreceptor) semipurified by wheat germ agglutinin purification; made in house; host or cells: baby hamster kidney (BHK) cells, stably transfected (pZem vector)
Experimental: as §1

T1 sequence (P06213 28-758 limits assumed): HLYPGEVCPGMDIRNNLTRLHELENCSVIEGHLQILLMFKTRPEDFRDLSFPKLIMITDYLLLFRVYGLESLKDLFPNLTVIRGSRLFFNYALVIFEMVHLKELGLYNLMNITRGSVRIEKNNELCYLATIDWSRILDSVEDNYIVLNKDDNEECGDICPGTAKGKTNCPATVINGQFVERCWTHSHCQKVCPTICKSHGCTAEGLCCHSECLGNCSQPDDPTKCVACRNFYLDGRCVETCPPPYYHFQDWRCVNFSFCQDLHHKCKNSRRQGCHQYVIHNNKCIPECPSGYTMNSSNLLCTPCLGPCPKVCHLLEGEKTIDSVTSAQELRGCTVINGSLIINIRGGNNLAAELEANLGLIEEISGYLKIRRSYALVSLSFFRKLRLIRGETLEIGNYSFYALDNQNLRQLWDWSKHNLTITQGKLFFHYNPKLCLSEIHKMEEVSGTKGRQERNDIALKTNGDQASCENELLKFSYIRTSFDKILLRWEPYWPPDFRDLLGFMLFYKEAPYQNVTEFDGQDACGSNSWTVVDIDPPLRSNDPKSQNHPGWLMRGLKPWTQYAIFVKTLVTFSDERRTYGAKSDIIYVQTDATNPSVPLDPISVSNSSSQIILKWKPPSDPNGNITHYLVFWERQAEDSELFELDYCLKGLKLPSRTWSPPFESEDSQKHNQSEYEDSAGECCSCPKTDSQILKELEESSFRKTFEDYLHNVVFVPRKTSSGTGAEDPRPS
T1 sequence (P06213 763-1382 partner limits assumed): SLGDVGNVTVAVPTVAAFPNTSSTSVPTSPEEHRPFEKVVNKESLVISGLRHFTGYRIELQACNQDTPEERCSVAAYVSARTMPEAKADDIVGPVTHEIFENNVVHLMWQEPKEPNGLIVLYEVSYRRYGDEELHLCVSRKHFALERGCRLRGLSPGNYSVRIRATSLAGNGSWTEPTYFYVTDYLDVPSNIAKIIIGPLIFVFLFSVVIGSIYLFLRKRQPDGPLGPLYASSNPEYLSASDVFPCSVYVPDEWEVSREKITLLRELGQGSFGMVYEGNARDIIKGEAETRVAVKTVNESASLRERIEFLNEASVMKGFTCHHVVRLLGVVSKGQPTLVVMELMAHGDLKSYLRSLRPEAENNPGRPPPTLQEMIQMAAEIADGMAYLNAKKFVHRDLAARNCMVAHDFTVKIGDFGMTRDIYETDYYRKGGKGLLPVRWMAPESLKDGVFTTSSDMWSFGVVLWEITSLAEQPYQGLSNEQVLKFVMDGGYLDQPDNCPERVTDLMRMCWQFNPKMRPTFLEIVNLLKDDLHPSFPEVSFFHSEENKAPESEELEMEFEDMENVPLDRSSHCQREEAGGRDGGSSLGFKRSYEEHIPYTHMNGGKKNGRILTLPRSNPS
T2 sequence (P06213 28-746 isoform P06213-2 limits assumed): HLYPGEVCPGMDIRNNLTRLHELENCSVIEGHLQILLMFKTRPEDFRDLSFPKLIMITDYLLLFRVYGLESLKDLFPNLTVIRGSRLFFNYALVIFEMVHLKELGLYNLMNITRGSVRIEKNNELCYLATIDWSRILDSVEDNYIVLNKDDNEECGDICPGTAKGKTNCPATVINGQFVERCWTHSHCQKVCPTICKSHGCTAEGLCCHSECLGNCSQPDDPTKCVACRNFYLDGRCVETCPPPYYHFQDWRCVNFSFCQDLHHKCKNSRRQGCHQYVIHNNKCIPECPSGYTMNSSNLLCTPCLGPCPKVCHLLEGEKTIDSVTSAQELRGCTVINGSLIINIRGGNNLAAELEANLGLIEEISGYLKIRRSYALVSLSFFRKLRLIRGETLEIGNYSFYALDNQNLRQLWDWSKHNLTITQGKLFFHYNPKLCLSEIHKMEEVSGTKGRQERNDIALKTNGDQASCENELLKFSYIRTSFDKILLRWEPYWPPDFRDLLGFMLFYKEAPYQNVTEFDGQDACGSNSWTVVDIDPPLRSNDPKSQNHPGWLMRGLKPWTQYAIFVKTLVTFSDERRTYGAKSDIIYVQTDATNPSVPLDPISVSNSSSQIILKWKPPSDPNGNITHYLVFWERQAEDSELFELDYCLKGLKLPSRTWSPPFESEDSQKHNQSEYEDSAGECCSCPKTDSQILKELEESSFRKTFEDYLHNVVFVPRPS
T2 sequence (P06213 763-1382 partner limits assumed): as the sequence (P06213 763-1382 partner limits assumed) above

His^B25 human insulin
biological activity [1]: high biological activity

His^B25 human insulin B30 amide
biological activity [1]: high biological activity

His^B25, Asp^B28, desB30 human insulin
biological activity [1]: high biological activity

Human insulin
affinity for insulin receptor A-isoform versus B-isoform (in words) ([2]; EMBO Journal 9 (1990), 2409-13): slightly higher affinity for the insulin receptor A-isoform than for the B-isoform

IGF-II
affinity for IR-A versus IR-B ([2]; higher affinity for IR-A than for IR-B): 40-50 fold

[A8H, B25H, B27E, desB30] human insulin [Example 4]
Ratio B/A (human IR-B; Example 8 table, ratio of relative hIR-B affinity to relative hIR-A affinity): 2.1
hIR-B [% of HI] (%) (human IR-B; hIR-B affinity relative to human insulin, analogue directly in yeast supernatant, SPA competition with [125I]A14Tyr-labelled insulin): 140 ± 5 % of HI
hIR-A [% of HI] (human IR-A): 67 ± 3 % of HI
